Measurements: patent US20030077740A1, “Presenilin/Crk binding polypeptides (PCBP) and methods of use thereof” (priority 2001, published 2003)
Residues, ends and D or L forms follow the SMILES beside them. *: point of attachment. Cbz = O=C(OCc1ccccc1)*

Assays:
PBP = conditions: PS fragment fused to GAL4-DNA binding domain, PBPα-GAL4 activation domain, β-galactosidase assay
Protocol: The yeast two-hybrid system was used to screen for cytoplasmic proteins that interact with PSs. […] Yeast (Y190) were co-transformed with each of the PS1 constructs and a mouse brain cDNA library fused to the GAL4 activation domain in the pGAD424 vector (Clontech). Transformants were plated on yeast drop-out media (Clontech) contain g 20 mM 3-amino-1,2,4-triazole (3-AT), and after 10 days of incubation at 30° C., colonies were transferred to Nitropure membrane Micron Separation Inc., Westboro, MA), and the X-gal assay was performed.
To determine the minimal sequence of the large hydrophilic loop of PS that is required for the interaction with PBP, three deletion fragments of the loop were inserted into pGBT9 and the interaction with PBP was examined using the yeast two-hybrid system.

APP695/PBP cells = assay: protease inhibitors on APP secretion and intracellular accumulation; assay type: cell-based, rat
Protocol: Cells and transfection: Neuronal cell line B103 (Schubert et al. (1974) Nature, 249, 224-227) was grown in Dulbecco's modified Eagle's medium (DMEM) supplemented with 10% heat-inactivated fetal bovine serum (FBS). B103 cells were transfected with APP695 using G418 selection (Schubert et al. (1989) Neuron, 3: 689-694) and with various plasmids by Lepfectamin2000 (GIBCO; NJ, USA) using puromycin selection for PBP or hygromycin for PS1, respectively. The stably transfected cells were subsequently cloned and screened for protein expression by western blot analysis.
Western blotting, metabolic labeling and immunoprecipitation: For western blotting, cells were washed twice with ice-cold PBS and lysed in lysis buffer (1% Triton, 50 mM Hepes pH 7.5, 50 mM NaCl, 5 mM EDTA, 1 mM Na3VO4, 50 mM NaF, 10 mM Na4P2O7, plus a mixture of protease inhibitors (Complete Mini; Roche, Ind., USA). Protein concentrations were determined by Coomassie Plus (Pierce; IL, USA). The same amount of protein from each sample was separated on Novex pre-cast polyacrylamide gels (Invitrogen; CA, USA), and transferred to Immobulin membranes (Millipore; MA, USA). The membranes were blocked with 5% non-fat milk in Tris-buffered saline for 1 hour at room temperature. Following overnight incubation at 4° C. with primary antibodies, the antigens are detected with horseradish peroxidase-conjugated secondary antibodies (Bio-Rad; CA, USA; 1:20,000), an ECL kit (Amersham; NJ, USA), and exposed to films. For pulse-chase experiments, cells were grown to 80% confluency and incubated in methionine-free DMEM for 90 min. Cells were labeled with [^35]S-methionine (400 μCi/ml in methionine-free DMEM plus 5% dialyzed FBS) for 10 min at 37° C., and the medium was replaced with serum-free DMEM medium plus Ni-supplement (Sigma Inc.; MI, USA). The media were collected and cells were lysed after different time periods. Protein concentrations were determined and the same amounts of proteins were immunoprecipitated with antibodies at 4° C. overnight 25 μl of anti-mouse IgG agarose (Roche) was then added to each sample and incubated at 4° C. for 2 hours on a rocker platform. The immunoprecipitates were collected by centrifugation and washed 4 times with the washing buffer (0.1% Triton, 20 mM Hepes, 150 mM NaCl, 10% glycerol). The agarose beads were resuspended in 30 μl SDS-PAGE sample buffer boiled for 3 min to release the proteins. After 2 min of centrifugation, the supernatants were separated on 8% Tri-glycine gels. The gels were dried and subjected to autoradiography and quantitated by NIH image.
To independently verify the data on APP degradation, the effect of two protease inhibitors, leupeptin and MG132, on the secretion and the intracellular accumulation of APP was studied. Leupeptin is thought to inhibit lysosomal proteases, whereas MG132 is thought to inhibit ER membrane protein degradation through the ubiquitin-proteasome pathway (Soriano et al. (1999) J. Biol. Chem., 274: 32295-32300).

[1] = biological target: T1, large hydrophilic loop of PS1 (Homo sapiens, UniProt P49768); assay: co-immunoprecipitation in 293T cells, PS1 loop; assay type: binding; conditions: immunoprecipitation with anti-TAG, 48 hrs after transfection, PS1-FLAG loop
T1 construct: and a large hydrophilic loop (amino acids 263-407); expressed in transfected cells; host or cells: 293T human kidney cells, pCIS2 expression vector
Protocol: To confirm the yeast two-hybrid data, the interaction between PBP and PSs was assayed in mammalian cells by immunoprecipitation. Human kidney 293-T cells, and monkey kidney COS-7 cells were cultured in Dulbecco's modified Eagle's medium supplemented with 10% fetal calf serum at 37° C. in a 10% CO2 atmosphere. A nine-amino acid TAG epitope ([…]) (SEQ ID NO:6) was incorporated in-frame at the 3′ end of the PBP cDNA (PBP-TAG), and an eight amino acid FLAG epitope ([…]) (SEQ ID NO:7) was attached in frame at the 5′ end of the large hydrophilic loop of PS1 cDNA and at the 3′ end of full length PS1 cDNA as described previously (Kimura, H., Proc. Natl. Acad. Sci. (USA), 90:2165-2169 (1993)). The resulting fragments were inserted into the pCIS2 expression vector (Genentech, San Francisco, Calif.) for transient or constitutive expression. […]
For immunoprecipitation of the large hydrophilic loop of PSs or Crk with PBP, cells were lysed in RIPA buffer (100 mM NaCl, 0.5% NP-40, 0.5% DOC, 0.1% SDS, 50 mM Tris, pH 7.5, 1 mM PMSF and 1 μg/ml aprotinin, 1 μg/l leupeptin) on ice for 30 min. […] The bound antibodies were detected by the ECL-plus chemiluminescence system (Amersham, Arlington Heights, Ill.).

PS1 = biological target: T2, PS1 (Homo sapiens, UniProt P49768); assay: yeast two-hybrid interaction with PS1; assay type: binding; conditions: yeast two-hybrid assay
T2 construct: the large hydrophilic loop region of PS1 (amino acids 1-81, 429-468, 263-407, respectively) were inserted into the pGBT9 vector; expressed in transfected cells; host or cells: yeast Y190

B103 (APP695) cells = assay: APP secretion by transfected B103 (APP695) cells, Western blotting; assay type: cell-based, rat; conditions: overexpression of the protein
[2] = 100 μM, either cells, data not shown

Compound: EERGVKLGLGDFIFYSVLVGKA [consensus]
- interaction with PBP (PBP): exhibit an interaction

Compound: CC(C)C[C@@H](C=O)NC(=O)[C@H](CC(C)C)NC(=O)[C@H](CC(C)C)NC(=O)OCc1ccccc1 [MG132] (Cbz-Leu-Leu-Leu-aldehyde)
- APP secretion (APP695/PBP cells; 10 μM, APP695/PBP cells): significantly increased
- intracellular accumulation of APP (APP695/PBP cells; 10 μM, APP695/PBP cells): significantly increased
- secretion of APP in cells expressing PBP (APP695/PBP cells; after 16 hours of treatment): almost restored to the control level

Compound: Dock 180: protein 40% homologous to PBP, has a SH3 domain and interacts with Crk [reference compound]
- interaction with PS1 [1]: did not show any interaction
- functional interaction with PS1 (PS1): nor did it functionally interact
- secretion of APP (B103 (APP695) cells): not affected

Compound: CC(=O)N[C@@H](CC(C)C)C(=O)N[C@@H](CC(C)C)C(=O)N[C@H](C=O)CCCNC(=N)N [leupeptin]
- APP secretion (APP695/PBP cells; [2]): no effect
- intracellular accumulation of APP (APP695/PBP cells; [2]): no effect
